Source: patent US20140329854A1, “NOVEL HETEROCYCLIC COMPOUNDS USEFUL IN SIRTUIN BINDING AND MODULATION” (SMB Innovation, priority 2011, published 2014)
Where two headings read alike, the source gives them in different places.

How the values were obtained:
[1] = Solubility in DMSO stock solution; details: solubility in DMSO before further dilution with water to 1% DMSO
[2] = target: T1, SIRT1 (Homo sapiens, UniProt Q96EB6); test: CISBIO HTRF SIRT1 assay of SIRT1 peptide deacetylation, modified by excluding NAD+; format: biochemical; details: for Modulation of SIRT1 deacetylating activity (in words): dose response, FIGS. 1-5
T1 construct: purchased Cisbio Bioassays
T1 sequence (Q96EB6 1-747): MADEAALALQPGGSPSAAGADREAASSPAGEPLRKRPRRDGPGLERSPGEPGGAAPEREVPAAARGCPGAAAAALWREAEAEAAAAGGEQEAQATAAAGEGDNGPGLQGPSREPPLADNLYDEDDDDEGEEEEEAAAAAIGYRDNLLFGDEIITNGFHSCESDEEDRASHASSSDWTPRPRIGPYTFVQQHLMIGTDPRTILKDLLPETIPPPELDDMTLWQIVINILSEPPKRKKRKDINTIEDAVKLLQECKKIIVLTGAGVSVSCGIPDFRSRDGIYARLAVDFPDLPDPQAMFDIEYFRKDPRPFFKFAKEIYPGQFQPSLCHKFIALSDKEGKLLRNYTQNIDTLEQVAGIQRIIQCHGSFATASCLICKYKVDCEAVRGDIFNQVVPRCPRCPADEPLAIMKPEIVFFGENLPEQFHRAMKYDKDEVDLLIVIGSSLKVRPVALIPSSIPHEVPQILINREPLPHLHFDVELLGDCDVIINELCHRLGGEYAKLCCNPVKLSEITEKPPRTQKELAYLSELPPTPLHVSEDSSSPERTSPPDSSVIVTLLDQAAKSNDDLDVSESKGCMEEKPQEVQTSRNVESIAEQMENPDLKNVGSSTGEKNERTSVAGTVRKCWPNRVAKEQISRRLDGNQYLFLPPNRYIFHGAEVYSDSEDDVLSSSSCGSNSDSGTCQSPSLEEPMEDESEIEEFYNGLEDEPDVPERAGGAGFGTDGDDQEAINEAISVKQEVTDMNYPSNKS
Procedure: Generally, the CISBIO HTRF® fluorescence enzyme titration assay (Cisbio Bioassays, Cisbio, 135 South Road, Bedford, Mass. 01730, USA) has provided information on inhibition and/or activation of SIRT1 deacetylation of a substrate peptide d2 containing a single acetylated lysine residue and a fluorescence probe/quencher. IC50 and AC50 values have been obtained. The assay was performed in microtiter wells and involved an enzymatic step, wherein 2 μL of the substrate peptide (6 nM) is incubated with 2 μL of SIRT1 enzyme (2.5 ng) and 2 μL of compound solution in DMSO and water. Reaction with anti-acetyl cryptate produces a FRET signal giving maximum signal when no SIRT1 reaction can be detected. The detection step involves quantification of the deacetylation process using an anti-acetyl MAb labeled with Eu^3+ cryptate. The assay was modified by excluding the NAD+ cofactor and using nicotinamide as inhibition control and the compound SRT1720 as activation control. SRT 1720 is described as a SIRT1 activating compound in Pillarisetti, S. (2008).
Protocol for inhibition/activation assay:
After adding all enzymatic step ingredients the mixture is incubated at room temperature at 30 to 60 min. Then the detection reactant is added and incubated at room temperature for 5 hours and on to produce a signal. The fluorescence readout is given as percentage of signal produced with no enzyme reaction.
The cryptate is excited at 337 nm and the fluorescence is measured at 590 nm (cryptate emission wavelength) and 665 nm (d2 emission wavelength). A ratio is calculated (665/590 nm) for each well.
The figures show percentage fluorescence as a function of Log C (log of compound concentration in μM).

[3] = system: CYP1A2, CYP2C9, CYP2C19, CYP2D6, CYP3A4; test: CYP inhibition in human liver microsomes
[4] = system: rat hepatocytes; test: Metabolic stability in rat hepatocytes; format: in vitro ADME; details: for % Qh (rat): CLh as % of hepatic blood flow; for % Qh (rat) / rat CLh: rat Qh = 55 mL/min/kg; for rat CLh: hepatic clearance from CLint by well-stirred equation; for rat CLint: rat hepatocytes, hepatic intrinsic clearance
Procedure: (§1) Stability of the six compounds in the presence of a drug metabolizing system such as human and rat hepatocytes was measured. Data were reported from the CRO in the format of hepatic intrinsic clearance (CLint) in mL/min/kg. These CLint data were converted using the well-stirred equation
(§2) to a whole body clearance (CLh, hepatic clearance), which is more directly physiologically interpreted (Qh, hepatic blood flow rate, mL/min/kg).

[5] = system: human hepatocytes; test: Metabolic stability in human hepatocytes; format: in vitro ADME; details: for % Qh (human): CLh as % of hepatic blood flow; for % Qh (human) / hu CLh: human Qh = 21 mL/min/kg; for hu CLh: hepatic clearance from CLint by well-stirred equation; for hu CLint: human hepatocytes, hepatic intrinsic clearance
Procedure: as §1, §2

[6] = system: human and rat hepatocytes; test: Stability in cryopreserved hepatocytes (FIG. 7), verbal summary; format: in vitro ADME; details: 90 minutes
Procedure: as §1

[7] = Measured partition coefficients (MlogD7.4, logP11); format: physicochemical; details: measured partition coefficient at pH 7.4
Procedure: Physical properties tPSA and ClogP (calculated lipophilicity octanol/water) were calculated using ChemDraw. Additionally, M log D7.4 (measured partition coefficient at pH 7.4) and log P11 (measured partition coefficient at pH 11) were measured, and all data are shown in Table 7.

[8] = system: CYP1A2, 2C9, 2C19, 2D6, and 3A4; details: microsomes
[9] = system: MDCK-MDR1 cells
Description: MDR1 is the nomenclature for the major efflux transporter P-glycoprotein (P-gp), which is expressed at important anatomical barriers such as blood-brain, small intestine, and tumor cells. The MDCK-MDR model is a polarized cell model over expressing P-gp (i.e. P-gp is expressed on the Apical, or gut lumen, side of the cell) that is capable of actively effluxing small molecule substrates in the B to A direction. […] The compounds were run bidirectionally (Compound added to apical side and flux measured of compound appearing on the basolateral, or blood, side; compound added on basolateral side and flux of compound to apical side measured).

[10] = average AC50 values, n = 6, read-out: AC50
[11] = SIRT1 activation, no NAD+ cofactor, average n = 3, read-out: AC50 in μM, average, n = 3
[12] = SIRT1 activation, no NAD+ cofactor, single experiment of FIGS. 1-4, read-out: AC50 in μM, n = 1

NC(=O)c1ccc(C(=O)Nc2cccc3c(O)cccc23)nc1 [Compound 5, 2-N(5-hydroxy-1-naphthyl)pyridine-2,5-dicarboxamide]
Concentration of compound in DMSO stock solution [1]: 20000 µM

NC(=O)c1ccc(C(=O)Nc2cccc3cc(O)ccc23)cn1 [Compound 12, 5-N(6-hydroxy-1-naphthyl)pyridine-2,5-dicarboxamide]
Concentration of compound in DMSO stock solution [1]: 20000 µM

NC(=O)c1ccc(C(=O)Nc2c(O)ccc3cc(Cl)ccc23)nc1 [Compound 29, 2-N(2-hydroxy-6-chloro-1-naphthyl)pyridine-2,5-dicarboxamide]
AC50 [2, 10]: 113 µM | IC50 [3]: > 5 µM

NC(=O)c1ccc2cc(C(=O)Nc3ccc(O)cc3)ccc2n1 [Compound 14, 6-N(4-hydroxyphenyl)quinolin-2,6-dicarboxamide]
Concentration of compound in DMSO stock solution [1]: 200000 µM

CCOc1ccc2ccc(=O)oc2c1 [Compound 7EC, reference compound]
% Qh (rat) [4]: 66.0% | rat CLh [4]: 36.3 mL/min/kg | rat CLint [4]: 107 mL/min/kg | % Qh (human) [5]: 82.5% | hu CLh [5]: 17.3 mL/min/kg | hu CLint [5]: 99 mL/min/kg

NC(=O)c1ccc(C(=O)Nc2ccc(O)c3ccccc23)cn1 [Compound 11, 5-N(4-hydroxy-1-naphthyl)pyridine-2,5-dicarboxamide]
% Qh (rat) [4]: 70.7% | rat CLh [4]: 38.9 mL/min/kg | rat CLint [4]: 133 mL/min/kg | Clearance in hepatocytes (in words) [6]: relatively low clearance | Stability in hepatocytes (in words) [6]: good stability | AC50 [2, 11]: 114 µM | AC50 [2, 12]: 3.3 µM | Modulation of SIRT1 deacetylating activity (in words) [2]: clear activation | Concentration of compound in DMSO stock solution [1]: 20000 µM | MlogD7.4 [7]: 1.6 | % Qh (human) [5]: 60.4% | hu CLh [5]: 12.7 mL/min/kg | hu CLint [5]: 32 mL/min/kg | IC50 [8]: > 5 µM | Cell permeability (in words) [9]: moderate cell permeability | P-gp mediated efflux (in words) [9]: no P-gp mediated efflux

NC(=O)c1ccc(C(=O)Nc2ccc(O)c3ccccc23)nc1 [Compound 4, 2-N(4-hydroxy-1-naphthyl)pyridine-2,5-dicarboxamide]
Concentration of compound in DMSO stock solution [1]: 20000 µM

NC(=O)c1ccc(C(=O)Nc2cc(Cl)ccc2O)nc1 [Compound 23, 2-N(2-hydroxy-5-chloro-phenyl)pyridine-2,5-dicarboxamide]
AC50 [2, 10]: > 200 µM

NC(=O)c1ccc(C(=O)Nc2cccc3cc(O)ccc23)nc1 [Compound 6, 2-N(6-hydroxy-1-naphthyl)pyridine-2,5-dicarboxamide]
Concentration of compound in DMSO stock solution [1]: 100000 µM

NC(=O)c1cc(C(=O)Nc2ccc(O)cc2)c[nH]1 [Compound 16, 4-N(4-hydroxyphenyl)pyrrol-2,4-dicarboxamide]
Concentration of compound in DMSO stock solution [1]: 200000 µM

NC(=O)c1ccc(C(=O)Nc2ccccc2O)nc1 [Compound 2, 2-N(2-hydroxyphenyl)pyridine-2,5-dicarboxamide]
AC50 [2, 11]: 348 µM | AC50 [2, 12]: 316 µM | Modulation of SIRT1 deacetylating activity (in words) [2]: clear activation | Concentration of compound in DMSO stock solution [1]: 200000 µM

COc1cccc(NC(=O)c2ccc(C(N)=O)cn2)c1O [Compound 24, 2-N(2-hydroxy-3-methoxy-phenyl)pyridine-2,5-dicarboxamide]
IC50 [8]: > 5 µM

NC(=O)c1ccc(C(=O)Nc2ccc(O)cc2O)cn1 [Compound 9, 5-N(2,4-dihydroxyphenyl)pyridine-2,5-dicarboxamide]
% Qh (rat) [4]: 21.4% | rat CLh [4]: 11.8 mL/min/kg | rat CLint [4]: 15 mL/min/kg | Clearance in hepatocytes (in words) [6]: relatively low clearance | Stability in hepatocytes (in words) [6]: good stability | AC50 [2, 12]: 112 µM | Modulation of SIRT1 deacetylating activity (in words) [2]: clear activation | Concentration of compound in DMSO stock solution [1]: 200000 µM | MlogD7.4 [7]: 0.3 | % Qh (human) [5]: 36.4% | hu CLh [5]: 7.6 mL/min/kg | hu CLint [5]: 12 mL/min/kg | IC50 [8]: > 5 µM | Cell permeability (in words) [9]: moderate cell permeability | P-gp mediated efflux (in words) [9]: no P-gp mediated efflux

NC(=O)c1ccc(C(=O)Nc2cc3ccccc3cc2O)nc1 [Compound 18, 2-N(3-hydroxy-2-naphthyl)pyridine-2,5-dicarboxamide]
AC50 [2, 10]: 116 µM

NC(=O)c1cc(C(=O)Nc2ccccc2O)c[nH]1 [Compound 17, 4-N(2-hydroxyphenyl)pyrrol-2,4-dicarboxamide]
IC50 ([2]; SIRT1 inhibition, no NAD+ cofactor, n = 1, FIG. 5): 0.5 µM | Modulation of SIRT1 deacetylating activity (in words) [2]: clear inhibition | Concentration of compound in DMSO stock solution [1]: 200000 µM

NC(=O)c1ccc(C(=O)Nc2ccc3ccccc3c2O)nc1 [Compound 19, 2-N(1-hydroxy-2-naphthyl)pyridine-2,5-dicarboxamide]
AC50 [2, 10]: 31.6 µM | IC50 [3]: > 5 µM

COc1cc2ccccc2c(NC(=O)c2ccc(C(N)=O)cn2)c1O [Compound 28, 2-N(2-hydroxy-3-methoxy-1-naphthyl)pyridine-2,5-dicarboxamide]
AC50 [2, 10]: 175 µM

NC(=O)c1cccc(C(=O)Nc2ccc(O)cc2O)n1 [Compound 13, 2-N(2,4-dihydroxyphenyl)pyridine-2,6-dicarboxamide]
AC50 [2, 11]: 647 µM | AC50 [2, 12]: 105 µM | Modulation of SIRT1 deacetylating activity (in words) [2]: clear activation | Concentration of compound in DMSO stock solution [1]: 20000 µM

NC(=O)c1ccc(C(=O)Nc2cccc3c(O)cccc23)cn1 [Compound 10, 5-N(5-hydroxy-1-naphthyl)pyridine-2,5-dicarboxamide]
Concentration of compound in DMSO stock solution [1]: 20000 µM

NC(=O)c1ccc2cc(C(=O)Nc3ccccc3O)ccc2n1 [Compound 15, 6-N(2-hydroxyphenyl)quinolin-2,6-dicarboxamide]
Concentration of compound in DMSO stock solution [1]: 10000 µM
